Assays:
Format in all cases: cell-based
Kasumi-7 cells = experiment: Human acute lymphoblastic leukemia cell line Kasumi-7 proliferation suppression test; settings: 72 h, compound 10 μM, 3 days, WST-8, read-out: cell survival rate (% of control) Kasumi-7
Excerpt: Example 55: Human Acute Lymphoblastic Leukemia Cell Line Kasumi-7 Proliferation Suppression Test
Kasumi-7 cells (NIBIOHN, JCRB1401) were suspended in 20% fetal calf serum (Thermo Fisher Scientific, Inc.)-containing RPMI1640 medium (ATCC, hereinafter abbreviated as medium C), and diluted as appropriate with 0.4% trypan blue solution (Sigma-Aldrich Co. LLC.). The number of viable cells was counted with a hemocytometer (Funakoshi Co., Ltd.). A cell suspension obtained by diluting with medium C such that the value obtained was 1.3×10^5 cells/mL was dispensed into a Falcon 96 well flat bottom plate (Corning Incorporated) at 75 μL/well, and culture was started at 37° C. under 5% CO2 stream. The next day, a solution obtained by diluting 4 mM DMSO solution of the test compound 100-fold with medium C was added by 25 μL to each well (final concentration of test compound 10 μM). 25 μL of a solution obtained by diluting DMSO 100-fold with medium C was added to the control well. After culturing at 37° C. in a 5% CO2 stream for 3 days, the cell proliferation activity was measured according to the instruction manual attached to WST-8 Kit (KISHIDA CHEMICAL Co., Ltd.).

Daudi cells = experiment: Human Burkitt lymphoma cell line Daudi proliferation suppression test; settings: 72 h, compound 10 μM, 3 days, WST-8, read-out: cell survival rate (% of control) Daudi
Excerpt: Example 54: Human Burkitt Lymphoma Cell Line Daudi Proliferation Suppression Test
(§1) Daudi cells (National Institutes of Biomedical Innovation, Health and Nutrition (NIBIOHN), JCRB9071) were suspended in medium B, and diluted as appropriate with 0.4% trypan blue solution (Sigma-Aldrich Co. LLC.). The number of viable cells was counted with a hemocytometer (ERMA INC.). A cell suspension obtained by diluting with medium B such that the value obtained was 1.3×10^5 cells/mL was dispensed into a Falcon 96 well flat bottom plate (Corning Incorporated) at 75 μL/well, and culture was started at 37° C. under 5% CO2 stream. The next day, a solution obtained by diluting 4 mM DMSO solution of the test compound 100-fold with medium B was added by 25 μL to each well (final concentration of test compound 10 μM). 25 μL of a solution obtained by diluting DMSO 100-fold with medium B was added to the control well. After culturing at 37° C. in a 5% CO2 stream for 3 days, the cell proliferation activity was measured according to the instruction manual attached to WST-8 Kit (KISHIDA CHEMICAL Co., Ltd.).

TNF-α production = experiment: Human TNF-α production suppression test (LPS-stimulated peripheral blood mononuclear cells, ELISA); settings: PBMC, 24 hr; for inhibition at 10 µg/mL: compound 10 μg/mL, control well = 100, read-out: TNF-α production suppressive rate (%)
Description: Example 50: Human TNF-α Production Suppression Test
Peripheral blood of a healthy adult was collected in a vacuum blood collection tube (Terumo, containing EDTA/2Na), and then diluted two-fold with an equal volume of OTSUKA NORMAL SALINE (Otsuka Pharmaceutical Co., Ltd.). The diluted blood was mixed with Lymphoprep (AXIS-SHIELD) in half the volume of the diluted blood, dispensed into a 15 mL conical tube, and centrifuged at room temperature for 20 min (2,100 rpm). The mononuclear cells accumulated at the interface between Lymphoprep and plasma was transferred to a 50 mL conical tube, diluted with OTSUKA NORMAL SALINE, and the mononuclear cells suspension was centrifuged at room temperature for 10 min (1,150 rpm) and then the supernatant was removed. The mononuclear cells fraction obtained as a precipitate was suspended in an appropriate amount of 10% fetal calf serum (Thermo Fisher Scientific)-containing RPMI1640 medium (Thermo Fisher Scientific, hereinafter abbreviated as medium A), and diluted as appropriate with 0.4% trypan blue solution (Sigma-Aldrich Co. LLC.). The number of viable cells was counted with a hemocytometer (ERMA INC.). It was diluted with medium A such that the value obtained was 5×10^5 cells/mL. On the other hand, 75 μL of medium A, 5 μL of 0.4 mg/mL test compound solution (DMSO solution 10-fold diluted with medium A), and 20 μL of 10 μg/mL lipopolysaccharide (Sigma-Aldrich Co. LLC.) solution (diluted with medium A) were each added in advance to the same well of a Falcon 96-well flat bottom plate (Corning Incorporated), and the above-mentioned cell suspension was dispensed at 0.1 mL/well. 5 μL of DMSO diluted 10-fold with medium A was added to the control well instead of the compound solution. After culturing at 37° C. in a 5% CO2 stream for 24 hr, the culture solution was centrifuged at 4° C., 1,000 rpm for 3 min and the supernatant was recovered. The content of TNF-α in the supernatant was measured using an ELISA kit (Peprotech) according to a conventional method. The amount of TNF-α produced in the well containing the test compound was determined with the amount of TNF-α produced in the control well as 100, and the suppression rate was calculated for each test.

REC-1 cells = experiment: Human mantle cell lymphoma cell line REC-1 proliferation suppression test; settings: Rec1, 72 h, compound 10 μM, 3 days, WST-8, read-out: cell survival rate (% of control) REC-1
Description: Example 53: Human Mantle Cell Lymphoma Cell Line REC-1 Proliferation Suppression Test
as §1, with “REC-1” for “Daudi”, “(ATCC, CRL-3004)” for “(National Institutes of Biomedical Innovation, Health and Nutrition (NIBIOHN), JCRB9071)”, “(Funakoshi Co., Ltd.).” for “(ERMA INC.).”

COc1cc(-c2cn(C3CCC(=O)NC3=O)nn2)cs1 (stereo not drawn) [compound 20, 3-[4-(5-methoxythiophen-3-yl)-1H-1,2,3-triazol-1-yl]piperidine-2,6-dione]
viability at 10 µM (Kasumi-7 cells): 53% | viability at 10 µM (Daudi cells): 55% | inhibition at 10 µg/mL (TNF-α production): 87% | viability at 10 µM (REC-1 cells): 22%

CCCOc1cscc1-c1cn(C2CCC(=O)NC2=O)nn1 (stereo not drawn) [compound 21, 3-[4-(4-propoxythiophen-3-yl)-1H-1,2,3-triazol-1-yl]piperidine-2,6-dione]
viability at 10 µM (Kasumi-7 cells): 79% | viability at 10 µM (Daudi cells): 86% | inhibition at 10 µg/mL (TNF-α production): 30% | viability at 10 µM (REC-1 cells): 63%

COc1c(-c2cn(C3CCC(=O)NC3=O)nn2)csc1Cl (stereo not drawn) [compound 22, 3-[4-(5-chloro-4-methoxythiophen-3-yl)-1H-1,2,3-triazol-1-yl]piperidine-2,6-dione]
viability at 10 µM (Kasumi-7 cells): 82% | viability at 10 µM (Daudi cells): 81% | inhibition at 10 µg/mL (TNF-α production): 48% | viability at 10 µM (REC-1 cells): 65%

COc1c(-c2cn(C3CCC(=O)NC3=O)nn2)csc1Br (stereo not drawn) [compound 23, 3-[4-(5-bromo-4-methoxythiophen-3-yl)-1H-1,2,3-triazol-1-yl]piperidine-2,6-dione]
viability at 10 µM (Kasumi-7 cells): 76% | viability at 10 µM (Daudi cells): 76% | inhibition at 10 µg/mL (TNF-α production): 62% | viability at 10 µM (REC-1 cells): 70%

CCOc1cc(-c2cn(C3CCC(=O)NC3=O)nn2)cs1 (stereo not drawn) [compound 24, 3-[4-(5-ethoxythiophen-3-yl)-1H-1,2,3-triazol-1-yl]piperidine-2,6-dione]
viability at 10 µM (Kasumi-7 cells): 72% | viability at 10 µM (Daudi cells): 69% | inhibition at 10 µg/mL (TNF-α production): 75% | viability at 10 µM (REC-1 cells): 46%

CCCCOc1cscc1-c1cn(C2CCC(=O)NC2=O)nn1 (stereo not drawn) [compound 25, 3-[4-(4-butoxythiophen-3-yl)-1H-1,2,3-triazol-1-yl]piperidine-2,6-dione]
viability at 10 µM (Kasumi-7 cells): 73% | viability at 10 µM (Daudi cells): 68% | inhibition at 10 µg/mL (TNF-α production): 49% | viability at 10 µM (REC-1 cells): 57%

CC(C)Oc1cscc1-c1cn(C2CCC(=O)NC2=O)nn1 (stereo not drawn) [compound 26, 3-[4-(4-isopropoxythiophen-3-yl)-1H-1,2,3-triazol-1-yl]piperidine-2,6-dione]
viability at 10 µM (Kasumi-7 cells): 50% | viability at 10 µM (Daudi cells): 51% | inhibition at 10 µg/mL (TNF-α production): 83% | viability at 10 µM (REC-1 cells): 23%

O=C1CCC(n2cc(-c3cscc3OC3CCCC3)nn2)C(=O)N1 (stereo not drawn) [compound 27, 3-{4-[4-(cyclopentyloxy)thiophen-3-yl]-1H-1,2,3-triazol-1-yl}piperidine-2,6-dione]
viability at 10 µM (Kasumi-7 cells): 83% | viability at 10 µM (Daudi cells): 70% | inhibition at 10 µg/mL (TNF-α production): 39% | viability at 10 µM (REC-1 cells): 80%

O=C1CCC(n2cc(-c3cscc3OCC3CC3)nn2)C(=O)N1 (stereo not drawn) [compound 28, 3-{4-[4-(cyclopropylmethoxy)thiophen-3-yl]-1H-1,2,3-triazol-1-yl}piperidine-2,6-dione]
viability at 10 µM (Kasumi-7 cells): 75% | viability at 10 µM (Daudi cells): 78% | inhibition at 10 µg/mL (TNF-α production): 37% | viability at 10 µM (REC-1 cells): 58%

O=C1CCC(n2cc(-c3cscc3OCC3CCCC3)nn2)C(=O)N1 (stereo not drawn) [compound 29, 3-{4-[4-(cyclopentylmethoxy)thiophen-3-yl]-1H-1,2,3-triazol-1-yl}piperidine-2,6-dione]
viability at 10 µM (Kasumi-7 cells): 84% | viability at 10 µM (Daudi cells): 79% | inhibition at 10 µg/mL (TNF-α production): 57% | viability at 10 µM (REC-1 cells): 86%

O=C1CCC(n2cc(-c3cscc3OCC3CCCCC3)nn2)C(=O)N1 (stereo not drawn) [compound 30, 3-{4-[4-(cyclohexylmethoxy)thiophen-3-yl]-1H-1,2,3-triazol-1-yl}piperidine-2,6-dione]
viability at 10 µM (Kasumi-7 cells): 62% | viability at 10 µM (Daudi cells): 76% | inhibition at 10 µg/mL (TNF-α production): 79% | viability at 10 µM (REC-1 cells): 49%

COc1ccc(COc2cscc2-c2cn(C3CCC(=O)NC3=O)nn2)cc1 (stereo not drawn) [compound 31, 3-{4-[4-(4-methoxybenzyloxy)thiophen-3-yl]-1H-1,2,3-triazol-1-yl}piperidine-2,6-dione]
viability at 10 µM (Kasumi-7 cells): 43% | viability at 10 µM (Daudi cells): 39% | inhibition at 3 µg/mL (TNF-α production; suppressive rate at 3 μg/mL): 82% | viability at 10 µM (REC-1 cells): 27%

O=C1CCC(n2cc(-c3cscc3OCc3ccccc3)nn2)C(=O)N1 (stereo not drawn) [compound 32, 3-{4-[4-(benzyloxy)thiophen-3-yl]-1H-1,2,3-triazol-1-yl}piperidine-2,6-dione]
viability at 10 µM (Kasumi-7 cells): 36% | viability at 10 µM (Daudi cells): 23% | inhibition at 10 µg/mL (TNF-α production): 100% | viability at 10 µM (REC-1 cells): 15%

O=C1CCC(n2cc(-c3cscc3OCc3ccncc3)nn2)C(=O)N1 (stereo not drawn) [compound 33, 3-{4-[4-(pyridin-4-ylmethoxy)thiophen-3-yl]-1H-1,2,3-triazol-1-yl}piperidine-2,6-dione]
viability at 10 µM (Kasumi-7 cells): 38% | viability at 10 µM (Daudi cells): 27% | inhibition at 10 µg/mL (TNF-α production): 100% | viability at 10 µM (REC-1 cells): 27%

O=C1CCC(n2cc(-c3cscc3OCc3ccccn3)nn2)C(=O)N1 (stereo not drawn) [compound 34, 3-{4-[4-(pyridin-2-ylmethoxy)thiophen-3-yl]-1H-1,2,3-triazol-1-yl}piperidine-2,6-dione]
viability at 10 µM (Kasumi-7 cells): 45% | viability at 10 µM (Daudi cells): 48% | inhibition at 10 µg/mL (TNF-α production): 97% | viability at 10 µM (REC-1 cells): 33%

O=C1CCC(n2cc(-c3cscc3OCc3cccnc3)nn2)C(=O)N1 (stereo not drawn) [compound 35, 3-{4-[4-(pyridin-3-ylmethoxy)thiophen-3-yl]-1H-1,2,3-triazol-1-yl}piperidine-2,6-dione]
viability at 10 µM (Kasumi-7 cells): 53% | viability at 10 µM (Daudi cells): 67% | inhibition at 10 µg/mL (TNF-α production): 70% | viability at 10 µM (REC-1 cells): 39%

O=C1CCC(n2cc(-c3cscc3OCc3ccc(CN4CCOCC4)cc3)nn2)C(=O)N1 (stereo not drawn) [compound 36, 3-(4-{4-[4-(morpholinomethyl)benzyloxy]thiophen-3-yl}-1H-1,2,3-triazol-1-yl)piperidine-2,6-dione]
viability at 10 µM (Kasumi-7 cells): 19% | viability at 10 µM (Daudi cells): 6% | inhibition at 10 µg/mL (TNF-α production): 98% | viability at 10 µM (REC-1 cells): 2%

COCc1ccc(COc2cscc2-c2cn(C3CCC(=O)NC3=O)nn2)cc1 (stereo not drawn) [compound 37, 3-(4-{4-[4-(methoxymethyl)benzyloxy]thiophen-3-yl}-1H-1,2,3-triazol-1-yl)piperidine-2,6-dione]
viability at 10 µM (Kasumi-7 cells): 38% | viability at 10 µM (Daudi cells): 20% | inhibition at 10 µg/mL (TNF-α production): 81% | viability at 10 µM (REC-1 cells): 17%
